Data as given in ChEMBL document CHEMBL3797079, “Synergistic reduction of HIV-1 infectivity by 5-azacytidine and inhibitors of ribonucleotide reductase” (Bioorg Med Chem, 2016).
Active and inactive are the calls of the source. The rule behind the calls is not given here.

Legend:
[1] = system: Human immunodeficiency virus 1; test: Antiviral activity against VSV-G pseudotyped HIV-1 NL4-3 infected in human U373-MAGI cells assessed as Pol mutation at 260 uM incubated for 2 hrs prior to infection measured at 72 hrs post infection by illumina sequencing method (reference value: 18.5%); format: functional
[2] = Reduction in dCTP level in human U373-MAGI cells at EC75 after 4 hrs by LC-MS/MS analysis relative to control; format: functional; set-up: scale not given: the % may be the effect or the level left
[3] = system: Human immunodeficiency virus 1; test: Antiviral activity against VSV-G pseudotyped HIV-1 NL4-3 infected in human U373-MAGI cells assessed as Vif mutation at 260 uM incubated for 2 hrs prior to infection measured at 72 hrs post infection by illumina sequencing method (reference value: 19.2%); format: functional
[4] = system: Human immunodeficiency virus 1; test: Antiviral activity against VSV-G pseudotyped HIV-1 NL4-3 infected in human U373-MAGI cells assessed as reduction in gag level at 25 to 400 uM after 2 to 72 hrs by qPCR method; format: functional, organism-based
[5] = system: Human immunodeficiency virus 1; test: Antiviral activity against VSV-G pseudotyped HIV-1 NL4-3 infected in human U373-MAGI cells assessed as C to G transversion at 260 uM incubated for 2 hrs prior to infection measured at 72 hrs post infection by illumina sequencing method relative to control; format: functional
[6] = system: Human immunodeficiency virus 1; test: Antiviral activity against VSV-G pseudotyped HIV-1 NL4-3 infected in human U373-MAGI cells assessed as increase in mutation frequency at 260 uM incubated for 2 hrs prior to infection measured at 72 hrs post infection by illumina sequencing method; format: functional
[7] = system: Human immunodeficiency virus 1; test: Antiviral activity against VSV-G pseudotyped HIV-1 NL4-3 infected in human U373-MAGI cells assessed as G to C transversion at 260 uM incubated for 2 hrs prior to infection measured at 72 hrs post infection by illumina sequencing method relative to control; format: functional
[8] = system: Human immunodeficiency virus 1; test: Antiviral activity against VSV-G pseudotyped HIV-1 NL4-3 infected in human U373-MAGI cells assessed as increase in frequency of C to G transversion at 260 uM incubated for 2 hrs prior to infection measured at 72 hrs post infection by illumina sequencing method relative to control; format: functional
[9] = system: Human immunodeficiency virus 1; test: Antiviral activity against VSV-G pseudotyped HIV-1 NL4-3 infected in human U373-MAGI cells assessed as Nef mutation at 260 uM incubated for 2 hrs prior to infection measured at 72 hrs post infection by illumina sequencing method (reference value: 22.6%); format: functional
[10] = system: Human immunodeficiency virus 1; test: Antiviral activity against VSV-G pseudotyped HIV-1 NL4-3 infected in human U373-MAGI cells assessed as reduction in U5-gag level at 25 to 400 uM after 2 to 72 hrs by qPCR method; format: functional, organism-based
[11] = system: Human immunodeficiency virus 1; test: Antiviral activity against VSV-G pseudotyped HIV-1 NL4-3 infected in human U373-MAGI cells assessed as increase in frequency of G to C transversion at 260 uM incubated for 2 hrs prior to infection measured at 72 hrs post infection by illumina sequencing method relative to control; format: functional
[12] = system: Human immunodeficiency virus 1; test: Antiviral activity against VSV-G pseudotyped HIV-1 NL4-3 infected in human U373-MAGI cells assessed as Gag mutation at 260 uM incubated for 2 hrs prior to infection measured at 72 hrs post infection by illumina sequencing method (reference value: 18.4%); format: functional
[13] = system: Human immunodeficiency virus 1; test: Antiviral activity against VSV-G pseudotyped HIV-1 NL4-3 infected in human U373-MAGI cells assessed as Env mutation at 260 uM incubated for 2 hrs prior to infection measured at 72 hrs post infection by illumina sequencing method (reference value: 21.4%); format: functional
[14] = system: Human immunodeficiency virus 1; test: Antiviral activity against VSV-G pseudotyped HIV-1 NL4-3 infected in human U373-MAGI cells assessed as Gag mutation at 3.8 uM incubated for 2 hrs prior to infection measured at 72 hrs post infection by illumina sequencing method (reference value: 18.4%); format: functional
[15] = system: Human immunodeficiency virus 1; test: Antiviral activity against VSV-G pseudotyped HIV-1 NL4-3 infected in human U373-MAGI cells assessed as Nef mutation at 3.8 uM incubated for 2 hrs prior to infection measured at 72 hrs post infection by illumina sequencing method (reference value: 22.6%); format: functional
[16] = system: Human immunodeficiency virus 1; test: Antiviral activity against VSV-G pseudotyped HIV-1 NL4-3 infected in human U373-MAGI cells assessed as reduction in gag level at 0.25 to 8 uM after 2 to 72 hrs by qPCR method; format: functional, organism-based
[17] = system: Human immunodeficiency virus 1; test: Antiviral activity against VSV-G pseudotyped HIV-1 NL4-3 infected in human U373-MAGI cells assessed as reduction in U5-gag level at 0.25 to 8 uM after 2 to 72 hrs by qPCR method; format: functional, organism-based
[18] = system: Human immunodeficiency virus 1; test: Antiviral activity against VSV-G pseudotyped HIV-1 NL4-3 infected in human U373-MAGI cells assessed as Pol mutation at 3.8 uM incubated for 2 hrs prior to infection measured at 72 hrs post infection by illumina sequencing method (reference value: 18.5%); format: functional
[19] = system: Human immunodeficiency virus 1; test: Antiviral activity against VSV-G pseudotyped HIV-1 NL4-3 infected in human U373-MAGI cells assessed as Env mutation at 3.8 uM incubated for 2 hrs prior to infection measured at 72 hrs post infection by illumina sequencing method (reference value: 21.4%); format: functional
[20] = system: Human immunodeficiency virus 1; test: Antiviral activity against VSV-G pseudotyped HIV-1 NL4-3 infected in human U373-MAGI cells assessed as Vif mutation at 3.8 uM incubated for 2 hrs prior to infection measured at 72 hrs post infection by illumina sequencing method (reference value: 19.2%); format: functional
U373-MAGI [21] = test: Reduction in dTTP level in human U373-MAGI cells at 2 mM after 6 hrs by LC-MS/MS analysis; format: functional, cell-based
U373-MAGI [22] = test: Reduction in dCTP level in human U373-MAGI cells at 2 mM preincubated for 2 hrs followed by 5-aza-dC addition measured after 4 hrs by LC-MS/MS analysis relative to 5-aza-dC; format: functional, cell-based
U373-MAGI [23] = test: Increase in 5-aza-dCTP/dCTP ratio in human U373-MAGI cells at 2 mM preincubated for 2 hrs followed by 5-aza-dC addition measured after 4 hrs by LC-MS/MS analysis relative to 5-aza-dC; format: functional, cell-based
U373-MAGI [24] = test: Increase in 5-aza-dCTP/dCTP ratio in human U373-MAGI cells at 2 mM preincubated for 2 hrs followed by 5-aza-C addition measured after 4 hrs by LC-MS/MS analysis relative to 5-aza-C; format: functional, cell-based
U373-MAGI [25] = test: Increase in 5-aza-dCTP/dCTP ratio in human U373-MAGI cells at 0.5 mM preincubated for 2 hrs followed by 5-aza-dC addition measured after 4 hrs by LC-MS/MS analysis relative to 5-aza-dC; format: functional, cell-based
[26] = Cytotoxicity against human U373-MAGI cells at 500 uM measured at 72 hrs by Celltiter-Glo luminescent cell viability assay; format: cell-based
U373-MAGI [27] = test: Reduction in dATP level in human U373-MAGI cells at 2 mM after 6 hrs by LC-MS/MS analysis; format: functional, cell-based
U373-MAGI [28] = test: Reduction in dGTP level in human U373-MAGI cells at 2 mM after 6 hrs by LC-MS/MS analysis; format: functional, cell-based
U373-MAGI [29] = test: Reduction in dCTP level in human U373-MAGI cells at 0.5 mM preincubated for 2 hrs followed by 5-aza-dC addition measured after 4 hrs by LC-MS/MS analysis relative to 5-aza-dC; format: functional, cell-based
U373-MAGI [30] = test: Reduction in dCTP level in human U373-MAGI cells at 0.5 mM after 6 hrs by LC-MS/MS analysis; format: functional, cell-based
U373-MAGI [31] = test: Effect on 5-aza-dCTP level in human U373-MAGI cells at 2 mM preincubated for 2 hrs followed by 5-aza-dC addition measured after 4 hrs by LC-MS/MS analysis; format: functional, cell-based
U373-MAGI [32] = test: Reduction in dATP level in human U373-MAGI cells at 0.5 mM after 6 hrs by LC-MS/MS analysis; format: functional, cell-based
U373-MAGI [33] = test: Reduction in dTTP level in human U373-MAGI cells at 0.5 mM after 6 hrs by LC-MS/MS analysis; format: functional, cell-based
U373-MAGI [34] = test: Reduction in 5-aza-dCTP level in human U373-MAGI cells at 0.5 mM preincubated for 2 hrs followed by 5-aza-C addition measured after 4 hrs by LC-MS/MS analysis; format: functional, cell-based
U373-MAGI [35] = test: Reduction in dRGU-TP level in human U373-MAGI cells at 2 mM preincubated for 2 hrs followed by 5-aza-C addition measured after 4 hrs by LC-MS/MS analysis; format: functional, cell-based
[36] = system: Human immunodeficiency virus 1; test: Potentiation of 5-Aza-C-induced antiviral activity against VSV-G pseudotyped HIV-1 NL4-3 infected in human U373-MAGI cells assessed as decrease in 5-Aza-C EC50 at 500 uM preincubated for 2 hrs followed by 5-Aza-C addition for 2 hrs and subsequent viral infection measured at 72 hrs post infection by flow cytometric analysis relative to control; format: functional
U373-MAGI [37] = test: Reduction in dGTP level in human U373-MAGI cells at 0.5 mM after 6 hrs by LC-MS/MS analysis; format: functional, cell-based
U373-MAGI [38] = test: Effect on dRGU-TP level in human U373-MAGI cells at 2 mM preincubated for 2 hrs followed by 5-aza-dC addition measured after 4 hrs by LC-MS/MS analysis; format: functional, cell-based
U373-MAGI [39] = test: Reduction in dCTP level in human U373-MAGI cells at 2 mM preincubated for 2 hrs followed by 5-aza-C addition measured after 4 hrs by LC-MS/MS analysis relative to 5-aza-C; format: functional, cell-based
U373-MAGI [40] = test: Reduction in dCTP level in human U373-MAGI cells at 0.5 mM preincubated for 2 hrs followed by 5-aza-C addition measured after 4 hrs by LC-MS/MS analysis; format: functional, cell-based
U373-MAGI [41] = test: Reduction in 5-aza-dCTP level in human U373-MAGI cells at 2 mM preincubated for 2 hrs followed by 5-aza-C addition measured after 4 hrs by LC-MS/MS analysis; format: functional, cell-based
U373-MAGI [42] = test: Reduction in dCTP level in human U373-MAGI cells at 2 mM after 6 hrs by LC-MS/MS analysis; format: functional, cell-based
U373-MAGI [43] = test: Effect on dRGU-TP level in human U373-MAGI cells at 0.5 mM preincubated for 2 hrs followed by 5-aza-dC addition measured after 4 hrs by LC-MS/MS analysis; format: functional, cell-based
U373-MAGI [44] = test: Effect on 5-aza-dCTP level in human U373-MAGI cells at 0.5 mM preincubated for 2 hrs followed by 5-aza-dC addition measured after 4 hrs by LC-MS/MS analysis; format: functional, cell-based
U373-MAGI [45] = test: Increase in 5-aza-dCTP/dCTP ratio in human U373-MAGI cells at 0.5 mM preincubated for 2 hrs followed by 5-aza-C addition measured after 4 hrs by LC-MS/MS analysis relative to 5-aza-C; format: functional, cell-based
[46] = system: Human immunodeficiency virus 1; test: Antiviral activity against VSV-G pseudotyped HIV-1 NL4-3 infected in human U373-MAGI cells assessed as reduction in viral infectivity at 500 uM incubated for 4 hrs prior to viral infection measured at 72 hrs post infection by flow cytometric analysis; format: functional, organism-based
U373-MAGI [47] = test: Reduction in dRGU-TP level in human U373-MAGI cells at 0.5 mM preincubated for 2 hrs followed by 5-aza-C addition measured after 4 hrs by LC-MS/MS analysis; format: functional, cell-based

SMILES: Nc1ncn([C@@H]2O[C@H](CO)[C@@H](O)[C@H]2O)c(=O)n1 [AZACITIDINE]
- Activity [1]: 25.8%
- Activity [2]: 50%
- Activity [3]: 12.8%
- Activity [4]: Active
- Activity [5]: 10%
- fold change (FC) [6]: 6.8
- Activity [7]: 60%
- fold change (FC) [8]: 43
- Activity [9]: 25.4%
- Activity [10]: Active
- fold change (FC) [11]: 67
- Activity [12]: 17%
- Activity [13]: 19.1%

SMILES: Nc1ncn([C@H]2C[C@H](O)[C@@H](CO)O2)c(=O)n1 [DECITABINE]
- Activity [14]: 16%
- Activity [15]: 21.5%
- Activity [2]: 50%
- Activity [16]: Active
- Activity [17]: Active
- Activity [18]: 26%
- Activity [19]: 20.5%
- Activity [20]: 15.9%

SMILES: NC(=O)NO [HYDROXYUREA]
- Activity (U373-MAGI [21]): inactive
- Activity (U373-MAGI [22]): Active
- Activity (U373-MAGI [23]): Active
- Activity (U373-MAGI [24]): inactive
- Activity (U373-MAGI [25]): Active
- Activity [26]: Non-toxic
- Activity (U373-MAGI [27]): Active
- Activity (U373-MAGI [28]): inactive
- Activity (U373-MAGI [29]): Active
- Activity (U373-MAGI [30]): inactive
- Activity (U373-MAGI [31]): inactive
- Activity (U373-MAGI [32]): inactive
- Activity (U373-MAGI [33]): inactive
- Activity (U373-MAGI [34]): inactive
- Activity (U373-MAGI [35]): inactive
- fold change (FC) [36]: 2.5
- Activity (U373-MAGI [37]): inactive
- Activity (U373-MAGI [38]): inactive
- Activity (U373-MAGI [39]): Active
- Activity (U373-MAGI [40]): Active
- Activity (U373-MAGI [41]): inactive
- Activity (U373-MAGI [42]): inactive
- Activity (U373-MAGI [43]): inactive
- Activity (U373-MAGI [44]): inactive
- Activity (U373-MAGI [45]): Active
- Activity [46]: Active
- Activity (U373-MAGI [47]): inactive
